Where two headings read alike, the source gives them in different places.
Columns and labels:
Format in all cases: in vivo, Mycosphaerella graminicola on wheat plants (variety Yuma)
[1] = test system: Mycosphaerella graminicola; Anamorph: Septoria tritici; Bayer Code SEPTTR (standard laboratory isolate, SI SEPTTR); assay: Type A (high volume) assay, leaf blotch of wheat, standard laboratory SEPTTR isolate (SI SEPTTR); settings: standard laboratory isolate, high volume, 50 ppm, wheat (Yuma); for pest or weed control at 50 ppm: Zymoseptoria tritici
Experimental: (§1) Example A: Evaluation of Fungicidal Activity: Leaf Blotch of Wheat (Mycosphaerella graminicola; Anamorph: Septoria tritici; Bayer Code SEPTTR)
(§2) For Type A assays, technical grades of the experimental fungicides in Table 4 below were dissolved in acetone, and then mixed with nine volumes of water containing 110 ppm Triton X-100. The fungicide solutions were applied onto wheat seedlings using an automated booth sprayer. For Type B assays, emulsifiable concentrate (EC) formulations of technical grades of the experimental fungicides in Table 4 below were prepared at 10% (w/v), and then mixed with 150 volumes of 0.1% Trycol 5941. These solutions were applied onto wheat seedlings using an automated track sprayer at 200 L/ha. All sprayed plants were allowed to air dry prior to further handling.
(§3) Wheat plants (variety Yuma) were grown from seed in a greenhouse in 50% mineral soil/50% soil-less Metro mix until the first leaf was fully emerged, with 7-10 seedlings per pot. Prior to or after application of experimental fungicides, plants were inoculated either with spores of a standard laboratory SEPTTR isolate (SI SEPTTR) or with spores from a SEPTTR field isolate collected from Wellsbourne, England in 2012 (FI SEPTTR). After inoculation the plants were kept for 3 days at 20° C. in 100% relative humidity (one day in a dark dew chamber followed by two days in a lighted dew chamber). Plants were then transferred to a 20° C. greenhouse for disease development. When disease symptoms were fully expressed on untreated plants, infection levels on treated plants were assessed on a scale of 0 to 100 percent disease severity. Percent disease control was calculated using the ratio of disease severity on treated plants relative to untreated plants.

[2] = Type B (low volume, EC formulation, track sprayer 200 L/ha) assay, leaf blotch of wheat, SEPTTR field isolate (FI SEPTTR); settings: Zymoseptoria tritici, 72 h, 100 g/ha
Procedure, shortened: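 Wheat seedlings (Yuma, first leaf emerged) sprayed with acetone/Triton X-100 solutions (Type A) or 10% EC diluted in 0.1% Trycol at 200 L/ha (Type B), inoculated before or after spraying. Inoculated plants held 3 days at 20 °C, 100% RH, then greenhouse; % disease control from severity versus untreated plants.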

[3] = test system: Mycosphaerella graminicola; Anamorph: Septoria tritici; Bayer Code SEPTTR (standard laboratory isolate, SI SEPTTR); assay: Type B (low volume, EC formulation, track sprayer 200 L/ha) assay, leaf blotch of wheat, standard laboratory SEPTTR isolate (SI SEPTTR); settings: Zymoseptoria tritici, 72 h, 100 g/ha
Experimental: as §1, §2, §3

[4] = 72 h, 3 Day Curative, read-out: Disease Control, SI SEPTTR Type A Assay (50 ppm) 3 DC
[5] = field isolate, low volume EC, 3 Day Curative, wheat (Yuma), read-out: Disease Control, FI SEPTTR Type B Assay (100 g/ha) 3 DC
[6] = field isolate, low volume EC, 3 Day Protectant, wheat (Yuma), read-out: Disease Control, FI SEPTTR Type B Assay (100 g/ha) 3 DP
[7] = standard laboratory isolate, low volume EC, 3 Day Curative, wheat (Yuma), read-out: Disease Control, SI SEPTTR Type B Assay (100 g/ha) 3 DC
[8] = standard laboratory isolate, low volume EC, 3 Day Protectant, wheat (Yuma), read-out: Disease Control, SI SEPTTR Type B Assay (100 g/ha) 3 DP
[9] = 24 h, 1 Day Protectant, read-out: Disease Control, SI SEPTTR Type A Assay (50 ppm) 1 DP

| Structure (SMILES) | pest or weed control at 50 ppm [1, 4] [%] | Disease Control, SI SEPTTR Type A Assay (50 ppm) 1 DP ([1]; 1 Day Protectant) | pest or weed control at 100 g/ha [2, 5] [%] | pest or weed control at 100 g/ha [2, 6] [%] | pest or weed control at 100 g/ha [3, 7] [%] | pest or weed control at 100 g/ha [3, 8] [%] | pest or weed control at 50 ppm [1, 9] [%] | pest or weed control at 100 g/ha ([2]; SEPTTR field isolate, low volume Type B assay, 3 Day Curative, wheat leaf blotch, read-out: Disease Control, FI SEPTTR Type B Assay (100 g/ha) 3 DC) [%] | pest or weed control at 100 g/ha ([2]; SEPTTR field isolate, low volume Type B assay, 3 Day Protectant, wheat leaf blotch, read-out: Disease Control, FI SEPTTR Type B Assay (100 g/ha) 3 DP) [%] | pest or weed control at 100 g/ha ([3]; SEPTTR standard laboratory isolate, low volume Type B assay, 3 Day Curative, wheat leaf blotch, read-out: Disease Control, SI SEPTTR Type B Assay (100 g/ha) 3 DC) [%] | pest or weed control at 100 g/ha ([3]; SEPTTR standard laboratory isolate, low volume Type B assay, 3 Day Protectant, wheat leaf blotch, read-out: Disease Control, SI SEPTTR Type B Assay (100 g/ha) 3 DP) [%] |
| --- | --- | --- | --- | --- | --- | --- | --- | --- | --- | --- | --- |
| CC(C)C(O)(c1cncnc1)c1ccc(Oc2ccc(C(F)(F)F)cc2)cn1 (stereo not shown) [Compound 3, 2-methyl-1-(pyrimidin-5-yl)-1-(5-(4-(trifluoromethyl)-phenoxy)pyridin-2-yl)propan-1-ol] | 80 to 100 | D (<40) | 60 to 79 | 40 to 59 | 80 to 100 | 80 to 100 |  |  |  |  |  |
| CC(C)C(O)(c1cncnc1)c1ccc(Oc2ccc(Cl)cn2)cn1 (stereo not shown) [Compound 13] | 80 to 100 |  | 40 to 59 | 60 to 79 | 60 to 79 | 80 to 100 | 80 to 100 |  |  |  |  |
| OC(c1cncnc1)(c1ccc(Oc2ccc(Cl)cn2)cn1)C1CC1 (stereo not shown) [Compound 14] | 80 to 100 |  | 40 to 59 | 60 to 79 | 60 to 79 | 60 to 79 | 80 to 100 |  |  |  |  |
| OC(c1cncnc1)(c1ccc(Oc2ccc(C(F)(F)F)cc2)cn1)C1CC1 (stereo not shown) [Compound 17] | 80 to 100 |  | 60 to 79 | 60 to 79 | 80 to 100 | 80 to 100 | 80 to 100 |  |  |  |  |
| CC(C)(C)C(O)(c1cncnc1)c1ccc(-c2ccc(OC(F)(F)F)cc2)cn1 (stereo not shown) [Compound 27, 2,2-dimethyl-1-(pyrimidin-5-yl)-1-(5-(4-(trifluoro-methoxy)phenyl)pyridin-2-yl)propan-1-ol] | 80 to 100 |  | 80 to 100 | 80 to 100 | 80 to 100 | 80 to 100 | 80 to 100 |  |  |  |  |
| CC(C)C(O)(Cc1cncnc1)c1ccc(-c2ccc(Cl)cc2)cn1 (stereo not shown) [Compound 38] | 80 to 100 |  | 80 to 100 | 40 to 59 | 80 to 100 | 80 to 100 | 80 to 100 |  |  |  |  |
| OC(Cc1cncnc1)(c1ccc(-c2ccc(Cl)cc2)cn1)C1CC1 (stereo not shown) [Compound 39] | 80 to 100 |  | 60 to 79 | 40 to 59 | 80 to 100 | 80 to 100 | 80 to 100 |  |  |  |  |
| OC(Cc1ccc(Cl)cc1F)(c1cncnc1)c1ccc(Oc2ccc(Cl)cc2)cn1 (stereo not shown) [Compound 41, 2-(4-chloro-2-fluorophenyl)-1-(5-(4-chlorophenoxy)-pyridin-2-yl)-1-(pyrimidin-5-yl)ethanol] | 80 to 100 |  | < 40 | 60 to 79 | 80 to 100 | 80 to 100 | 80 to 100 |  |  |  |  |
| CC(C)(C)C(O)(Cc1cncnc1)c1ccc(-c2ccc(Cl)cc2)cn1 (stereo not shown) [Compound 51] | 80 to 100 |  | 60 to 79 | 60 to 79 | 40 to 59 | 60 to 79 | 80 to 100 |  |  |  |  |
| CCC(C)(C)C(O)(Cc1cncnc1)c1ccc(-c2ccc(Cl)cc2)cn1 (stereo not shown) [Compound 57] | 80 to 100 |  | < 40 | < 40 | 80 to 100 | 80 to 100 | 80 to 100 |  |  |  |  |
| CC(C)(C)C(O)(c1cncnc1)c1ccc(-c2ccc(OC(F)F)cc2)cn1 (stereo not shown) [Compound 59] | 80 to 100 |  | 80 to 100 | 80 to 100 | 80 to 100 | 80 to 100 | 80 to 100 |  |  |  |  |
| OC(c1cncnc1)(c1ccc(-c2ccc(OC(F)F)cc2)cn1)C1CC1 (stereo not shown) [Compound 60] | 80 to 100 |  | < 40 | 60 to 79 | 80 to 100 | 80 to 100 | 80 to 100 |  |  |  |  |
| CC(C)C(O)(c1cncnc1)c1ccc(-c2ccc(OC(F)(F)F)cc2)cn1 (stereo not shown) [Compound 63] | 80 to 100 |  | 40 to 59 | 60 to 79 | 80 to 100 | 80 to 100 | 80 to 100 |  |  |  |  |
| CC(C)C(O)(c1cncnc1)c1ccc(-c2ccc(OCC(F)(F)F)nc2)cn1 (stereo not shown) [Compound 64] | 80 to 100 |  | 60 to 79 | 80 to 100 | 80 to 100 | 80 to 100 | 80 to 100 |  |  |  |  |
| CC(C)(C)C(O)(c1cncnc1)c1ccc(-c2ccc(Cl)cc2)cn1 (stereo not shown) [Compound 65] |  |  | 60 to 79 | 60 to 79 | 80 to 100 | 80 to 100 | 80 to 100 |  |  |  |  |
| OC(c1cncnc1)(c1ccc(-c2ccc(OC(F)(F)F)cc2)cn1)C1CC1 (stereo not shown) [Compound 73] |  |  | 60 to 79 | 60 to 79 | 80 to 100 | 80 to 100 | 80 to 100 |  |  |  |  |
| CC(C)(C)C(O)(Cc1cncnc1)c1ccc(-c2ccc(OC(F)(F)F)cc2)cn1 (stereo not shown) [Compound 74] |  |  | 40 to 59 | < 40 | 80 to 100 | 80 to 100 | 80 to 100 |  |  |  |  |
| OC(c1cccnc1)(c1ccc(-c2ccc(OC(F)(F)F)cc2)cn1)C1CC1 (stereo not shown) [Compound 78] |  |  | 60 to 79 | 60 to 79 | 80 to 100 | 80 to 100 | 80 to 100 |  |  |  |  |
| CC(C)(C)C(O)(c1cccnc1)c1ccc(-c2ccc(OC(F)(F)F)cc2)cn1 (stereo not shown) [Compound 80] |  |  | 80 to 100 | 80 to 100 | 80 to 100 | 80 to 100 | 80 to 100 |  |  |  |  |
| OC(c1cccnc1)(c1ccc(-c2ccc(OC(F)F)cc2)cn1)C1CC1 (stereo not shown) [Compound 81] |  |  | < 40 | 80 to 100 | 80 to 100 | 60 to 79 | 80 to 100 |  |  |  |  |
| Cc1ncccc1C(O)(c1ccc(-c2ccc(OC(F)(F)F)cc2)cn1)C(C)(C)C (stereo not shown) [Compound 151] |  |  |  |  | 80 to 100 | 80 to 100 | 80 to 100 |  |  |  |  |
| COC(c1cncnc1)(c1ccc(-c2ccc(OC(F)(F)F)cc2)cn1)C(C)(C)C (stereo not shown) [Compound 277, 5-(1-methoxy-2,2-dimethyl-1-(5-(4-(trifluoromethoxy)phenyl)pyridin-2-yl)propyl)pyrimidine] |  |  |  |  |  |  |  | 80 to 100 | 80 to 100 | 80 to 100 | 80 to 100 |

Source: patent US10167300B2, “Metalloenzyme inhibitor compounds as fungicides” (priority 2014, dated 2019)
